Key:
Test in all cases: Caliper, Mobility shift assay off-chip
[1] = biological target: SGK3 (human) (UniProt Q96BR1)
[2] = biological target: PIM2 (human) (UniProt Q9P1W9)
[3] = biological target: PRKCZ (human) (UniProt Q05513)
[4] = biological target: IKBKB (human) (UniProt O14920)
[5] = biological target: PRKD2 (human) (UniProt Q9BZL6)
[6] = biological target: KDR (human) (UniProt P35968)
[7] = biological target: PRKCA (human) (UniProt P17252)
[8] = biological target: IGF1R (human) (UniProt P08069)
[9] = biological target: RPS6KB1 (human) (UniProt P23443)
RPS6KB1 (human), sequence (P23443 whole entry, looked up): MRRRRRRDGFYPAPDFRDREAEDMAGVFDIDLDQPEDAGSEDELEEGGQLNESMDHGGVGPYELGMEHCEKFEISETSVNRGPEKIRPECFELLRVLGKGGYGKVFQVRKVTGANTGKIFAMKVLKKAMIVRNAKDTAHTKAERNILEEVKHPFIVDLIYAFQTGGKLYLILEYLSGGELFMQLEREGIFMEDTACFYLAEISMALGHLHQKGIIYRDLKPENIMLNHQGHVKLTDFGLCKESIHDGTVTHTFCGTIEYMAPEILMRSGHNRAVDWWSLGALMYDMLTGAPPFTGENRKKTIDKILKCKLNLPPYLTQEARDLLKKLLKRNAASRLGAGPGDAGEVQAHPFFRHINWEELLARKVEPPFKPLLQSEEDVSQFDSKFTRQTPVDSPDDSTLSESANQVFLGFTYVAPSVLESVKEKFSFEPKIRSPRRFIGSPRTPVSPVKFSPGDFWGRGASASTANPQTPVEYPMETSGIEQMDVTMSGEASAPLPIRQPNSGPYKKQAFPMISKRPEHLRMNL

[10] = biological target: GSK3B (human) (UniProt P49841)
GSK3B (human), sequence (P49841 whole entry, looked up): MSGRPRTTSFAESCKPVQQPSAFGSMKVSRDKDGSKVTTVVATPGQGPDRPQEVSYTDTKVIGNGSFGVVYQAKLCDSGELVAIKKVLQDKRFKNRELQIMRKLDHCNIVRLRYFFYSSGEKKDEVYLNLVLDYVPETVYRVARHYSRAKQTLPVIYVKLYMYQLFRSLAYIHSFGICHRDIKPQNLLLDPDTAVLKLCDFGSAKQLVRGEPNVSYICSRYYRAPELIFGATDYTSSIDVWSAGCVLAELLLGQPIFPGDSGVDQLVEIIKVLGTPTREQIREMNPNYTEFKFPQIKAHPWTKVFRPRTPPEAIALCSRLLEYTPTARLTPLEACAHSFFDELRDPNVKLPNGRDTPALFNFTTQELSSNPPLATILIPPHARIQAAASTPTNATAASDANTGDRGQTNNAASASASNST

[11] = biological target: MAPK12 (human) (UniProt P53778)
MAPK12 (human), sequence (P53778 whole entry, looked up): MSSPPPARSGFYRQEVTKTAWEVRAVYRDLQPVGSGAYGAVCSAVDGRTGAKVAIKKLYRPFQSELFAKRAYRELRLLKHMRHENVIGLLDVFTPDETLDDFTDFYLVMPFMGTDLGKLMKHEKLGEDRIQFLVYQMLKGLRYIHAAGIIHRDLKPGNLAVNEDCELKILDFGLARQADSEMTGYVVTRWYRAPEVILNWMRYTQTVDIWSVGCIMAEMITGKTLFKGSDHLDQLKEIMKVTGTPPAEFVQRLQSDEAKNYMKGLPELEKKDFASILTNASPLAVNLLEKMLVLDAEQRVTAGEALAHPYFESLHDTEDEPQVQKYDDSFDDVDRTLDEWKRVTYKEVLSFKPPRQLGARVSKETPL

[12] = biological target: MAPK14 (human) (UniProt Q16539)
[13] = biological target: SRC (human) (UniProt P12931)
[14] = biological target: DCLK2 (human) (UniProt Q8N568)
[15] = biological target: CHEK1 (human) (UniProt O14757)
[16] = biological target: PIM1 (human) (UniProt P11309)
PIM1 (human), sequence (P11309 whole entry, looked up): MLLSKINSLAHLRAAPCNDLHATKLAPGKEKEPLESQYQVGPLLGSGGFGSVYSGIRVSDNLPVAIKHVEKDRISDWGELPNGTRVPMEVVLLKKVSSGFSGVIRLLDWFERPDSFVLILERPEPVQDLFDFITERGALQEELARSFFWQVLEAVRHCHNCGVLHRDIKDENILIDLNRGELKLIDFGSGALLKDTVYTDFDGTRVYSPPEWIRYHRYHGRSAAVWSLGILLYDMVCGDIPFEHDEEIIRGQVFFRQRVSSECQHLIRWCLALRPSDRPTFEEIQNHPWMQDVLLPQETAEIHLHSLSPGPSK

[17] = tested on: FGFR2 (human), P21802 [N549H]
FGFR2 (human), P21802 [N549H], sequence (P21802 whole entry N549H, looked up): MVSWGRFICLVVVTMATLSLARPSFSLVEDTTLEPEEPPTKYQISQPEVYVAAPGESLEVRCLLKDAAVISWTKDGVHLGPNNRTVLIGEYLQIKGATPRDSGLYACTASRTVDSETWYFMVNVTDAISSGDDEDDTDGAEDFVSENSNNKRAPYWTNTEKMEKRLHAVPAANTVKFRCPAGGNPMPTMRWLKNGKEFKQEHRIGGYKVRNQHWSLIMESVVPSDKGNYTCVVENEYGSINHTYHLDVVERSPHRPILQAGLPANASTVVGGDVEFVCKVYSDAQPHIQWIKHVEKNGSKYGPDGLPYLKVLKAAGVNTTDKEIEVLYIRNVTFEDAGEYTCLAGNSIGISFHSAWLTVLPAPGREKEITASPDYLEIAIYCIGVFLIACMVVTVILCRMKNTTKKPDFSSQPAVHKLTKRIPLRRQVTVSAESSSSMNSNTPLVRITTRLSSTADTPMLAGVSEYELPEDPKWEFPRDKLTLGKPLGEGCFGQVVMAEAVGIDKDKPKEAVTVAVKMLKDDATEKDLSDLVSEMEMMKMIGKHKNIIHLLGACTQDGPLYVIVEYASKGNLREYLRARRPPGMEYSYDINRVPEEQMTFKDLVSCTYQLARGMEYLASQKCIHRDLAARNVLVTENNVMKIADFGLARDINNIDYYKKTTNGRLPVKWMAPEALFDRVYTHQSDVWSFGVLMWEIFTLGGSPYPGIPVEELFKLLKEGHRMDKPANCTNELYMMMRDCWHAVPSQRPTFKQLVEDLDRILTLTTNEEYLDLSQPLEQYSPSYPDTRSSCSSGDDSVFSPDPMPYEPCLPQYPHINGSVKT

[18] = biological target: SGK1 (human) (UniProt O00141)
[19] = biological target: MAPKAPK5 (human) (UniProt Q8IW41)
[20] = biological target: INSR (human) (UniProt P06213)
[21] = biological target: PRKACA (human) (UniProt P17612)
[22] = tested on: ABL1 (human), P00519 [T315I]
[23] = biological target: AKT3 (human) (UniProt Q9Y243)
AKT3 (human), sequence (Q9Y243 whole entry, looked up): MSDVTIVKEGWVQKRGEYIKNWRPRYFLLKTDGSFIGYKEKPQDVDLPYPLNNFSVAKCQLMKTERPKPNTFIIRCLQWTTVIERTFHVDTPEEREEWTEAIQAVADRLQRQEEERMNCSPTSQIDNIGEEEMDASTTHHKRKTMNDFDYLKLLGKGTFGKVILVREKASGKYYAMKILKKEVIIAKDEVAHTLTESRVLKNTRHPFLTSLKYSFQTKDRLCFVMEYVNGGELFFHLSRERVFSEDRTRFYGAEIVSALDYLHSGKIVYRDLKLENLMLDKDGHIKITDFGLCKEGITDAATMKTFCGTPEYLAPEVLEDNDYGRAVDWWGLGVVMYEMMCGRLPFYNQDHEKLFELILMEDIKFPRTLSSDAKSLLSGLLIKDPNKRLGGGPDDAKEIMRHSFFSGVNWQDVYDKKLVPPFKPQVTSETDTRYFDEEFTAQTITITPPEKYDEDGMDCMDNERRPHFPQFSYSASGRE

[24] = biological target: BRSK1 (human) (UniProt Q8TDC3)
[25] = biological target: MARK3 (human) (UniProt P27448)
MARK3 (human), sequence (P27448 whole entry, looked up): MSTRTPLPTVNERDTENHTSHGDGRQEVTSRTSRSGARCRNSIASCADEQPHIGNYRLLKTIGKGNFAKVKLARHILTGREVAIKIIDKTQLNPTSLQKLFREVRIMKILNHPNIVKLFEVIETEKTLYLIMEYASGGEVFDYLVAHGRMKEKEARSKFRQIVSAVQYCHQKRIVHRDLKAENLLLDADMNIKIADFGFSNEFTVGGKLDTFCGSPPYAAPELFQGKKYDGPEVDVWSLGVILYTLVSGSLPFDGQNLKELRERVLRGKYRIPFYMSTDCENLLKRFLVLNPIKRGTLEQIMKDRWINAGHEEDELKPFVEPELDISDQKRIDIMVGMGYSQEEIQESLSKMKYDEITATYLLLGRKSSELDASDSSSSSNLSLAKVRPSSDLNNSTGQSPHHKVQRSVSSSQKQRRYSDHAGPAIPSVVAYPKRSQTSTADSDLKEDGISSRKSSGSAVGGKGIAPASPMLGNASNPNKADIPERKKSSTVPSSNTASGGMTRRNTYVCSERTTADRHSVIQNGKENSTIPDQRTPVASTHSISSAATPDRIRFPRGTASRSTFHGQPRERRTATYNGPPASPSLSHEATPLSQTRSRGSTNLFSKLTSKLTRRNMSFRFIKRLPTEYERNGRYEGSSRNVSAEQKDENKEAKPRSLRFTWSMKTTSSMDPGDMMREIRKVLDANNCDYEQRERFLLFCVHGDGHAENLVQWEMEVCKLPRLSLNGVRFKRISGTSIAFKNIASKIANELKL

[26] = biological target: HCK (human) (UniProt P08631)
[27] = biological target: PRKCB1 (human) (UniProt P05771)
PRKCB1 (human), sequence (P05771 whole entry, looked up): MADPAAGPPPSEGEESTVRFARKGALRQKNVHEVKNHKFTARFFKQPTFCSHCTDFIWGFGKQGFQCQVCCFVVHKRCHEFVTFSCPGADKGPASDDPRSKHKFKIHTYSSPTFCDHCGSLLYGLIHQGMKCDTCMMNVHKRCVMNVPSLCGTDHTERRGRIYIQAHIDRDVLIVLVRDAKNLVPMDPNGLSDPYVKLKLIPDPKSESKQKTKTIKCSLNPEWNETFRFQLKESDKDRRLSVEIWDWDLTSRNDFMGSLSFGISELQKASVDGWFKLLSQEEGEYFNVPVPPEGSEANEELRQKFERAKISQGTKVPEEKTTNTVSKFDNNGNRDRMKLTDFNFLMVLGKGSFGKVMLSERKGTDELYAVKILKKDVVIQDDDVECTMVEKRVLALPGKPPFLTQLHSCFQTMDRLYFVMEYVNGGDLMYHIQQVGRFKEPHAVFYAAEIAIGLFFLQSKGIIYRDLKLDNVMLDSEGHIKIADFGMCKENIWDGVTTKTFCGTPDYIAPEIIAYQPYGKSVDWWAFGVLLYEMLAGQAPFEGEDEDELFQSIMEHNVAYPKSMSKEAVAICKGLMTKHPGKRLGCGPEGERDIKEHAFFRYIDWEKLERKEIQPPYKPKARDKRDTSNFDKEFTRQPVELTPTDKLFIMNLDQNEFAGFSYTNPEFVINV

[28] = biological target: MAPKAPK3 (human) (UniProt Q16644)
[29] = biological target: FGFR3 (human) (UniProt P22607)
[30] = biological target: MAPK3 (human) (UniProt P27361)
MAPK3 (human), sequence (P27361 whole entry, looked up): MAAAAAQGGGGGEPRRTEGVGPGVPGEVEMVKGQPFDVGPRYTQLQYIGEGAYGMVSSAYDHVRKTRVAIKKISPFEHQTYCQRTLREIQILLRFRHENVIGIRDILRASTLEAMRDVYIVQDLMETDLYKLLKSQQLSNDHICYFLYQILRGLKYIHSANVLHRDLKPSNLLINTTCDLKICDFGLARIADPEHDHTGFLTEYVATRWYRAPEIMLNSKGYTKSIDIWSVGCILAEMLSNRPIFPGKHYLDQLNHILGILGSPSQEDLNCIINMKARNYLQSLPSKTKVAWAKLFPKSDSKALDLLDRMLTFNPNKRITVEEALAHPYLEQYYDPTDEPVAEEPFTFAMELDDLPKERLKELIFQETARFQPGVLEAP

[31] = biological target: RPS6KA4 KD1 KD2 (human) (UniProt O75676)
[32] = biological target: BRSK2 (human) (UniProt Q8IWQ3)
[33] = biological target: MARK2 (human) (UniProt Q7KZI7)
[34] = biological target: ABL2 (human) (UniProt P42684)

For `Cn1cc(-c2cnc3ccc4ccc(CS(N)(=O)=O)cc4c(=O)c3c2)cn1`, the inhibition ([1]; compound 0.1 µM) was -1.4%, the inhibition ([1]; compound 1.0 µM) was 3.9% and the inhibition ([2]; compound 0.1 µM) was 15.4%. For the same compound, the inhibition ([2]; compound 1.0 µM) was 16.5%, the inhibition ([3]; compound 0.1 µM) was -6.7% and the inhibition ([3]; compound 1.0 µM) was 1%. It also gave an inhibition ([4]; compound 0.1 µM) of -12%, an inhibition ([4]; compound 1.0 µM) of 4.2% and an inhibition ([5]; compound 0.1 µM) of 7.3%. It also gave an inhibition ([5]; compound 1.0 µM) of -2.6%, an inhibition ([6]; compound 0.1 µM) of 32.6% and an inhibition ([6]; compound 1.0 µM) of 64%. For the same compound, the inhibition ([7]; compound 0.1 µM) was 3.1%, the inhibition ([8]; compound 0.1 µM) was -3.7% and the inhibition ([8]; compound 1.0 µM) was 1.8%. For the same compound, the inhibition ([9]; compound 0.1 µM) was 10%, the inhibition ([9]; compound 1.0 µM) was 13.5% and the inhibition ([10]; compound 0.1 µM) was -2.7%. The inhibition ([10]; compound 1.0 µM) was 9.3%, the inhibition ([11]; compound 0.1 µM) was -5.4% and the inhibition ([11]; compound 1.0 µM) was 2.9%. For the same compound, the inhibition ([12]; compound 0.1 µM) was -13.9%, the inhibition ([12]; compound 1.0 µM) was 6.9% and the inhibition ([13]; compound 0.1 µM) was 0.2%. The inhibition ([13]; compound 1.0 µM) was 1.3%, the inhibition ([14]; compound 0.1 µM) was 1.7% and the inhibition ([14]; compound 1.0 µM) was 8.4%. The inhibition ([15]; compound 0.1 µM) was -7.9%, the inhibition ([15]; compound 1.0 µM) was 3.1% and the inhibition ([16]; compound 0.1 µM) was -4.1%. For the same compound, the inhibition ([16]; compound 1.0 µM) was 3.7%, the inhibition ([17]; compound 0.1 µM) was 15.5% and the inhibition ([17]; compound 1.0 µM) was 40.5%. For the same compound, the inhibition ([18]; compound 0.1 µM) was 6.8%, the inhibition ([18]; compound 1.0 µM) was 11.5% and the inhibition ([19]; compound 0.1 µM) was 1.3%. The inhibition ([19]; compound 1.0 µM) was -7.9%, the inhibition ([20]; compound 0.1 µM) was 12% and the inhibition ([20]; compound 1.0 µM) was 6.4%. The inhibition ([21]; compound 0.1 µM) was -5.5%, the inhibition ([21]; compound 1.0 µM) was -1.1% and the inhibition ([22]; compound 0.1 µM) was 1.4%. It also gave an inhibition ([22]; compound 1.0 µM) of 12.7%, an inhibition ([23]; compound 0.1 µM) of 3.1% and an inhibition ([23]; compound 1.0 µM) of 3.13%. For the same compound, the inhibition ([24]; compound 0.1 µM) was 5.6%, the inhibition ([24]; compound 1.0 µM) was 12.5% and the inhibition ([25]; compound 0.1 µM) was -2.4%. It also gave an inhibition ([25]; compound 1.0 µM) of -3.3%, an inhibition ([26]; compound 0.1 µM) of -59.1% and an inhibition ([26]; compound 1.0 µM) of -1.6%. For the same compound, the inhibition ([27]; compound 0.1 µM) was -9.3%, the inhibition ([28]; compound 0.1 µM) was 5.4% and the inhibition ([28]; compound 1.0 µM) was 5.7%. The inhibition ([29]; compound 0.1 µM) was 41.1%, the inhibition ([29]; compound 1.0 µM) was 57.9% and the inhibition ([30]; compound 0.1 µM) was -0.7%. It also gave an inhibition ([30]; compound 1.0 µM) of 3.6% and an inhibition ([31]; compound 0.1 µM) of 15.2%.
`O=c1c2cc(CS(=O)(=O)NCc3ccccn3)ccc2ccc2ncc(C3CCNCC3)cc12` was tested, and the inhibition ([1]; compound 0.01 µM) was -13.2%, the inhibition ([1]; compound 0.1 µM) was -7.3% and the inhibition ([2]; compound 0.01 µM) was 4.3%. It also gave an inhibition ([2]; compound 0.1 µM) of 2.9%, an inhibition ([3]; compound 0.01 µM) of -0.3% and an inhibition ([3]; compound 0.1 µM) of 4.6%. The inhibition ([4]; compound 0.01 µM) was -0.2%, the inhibition ([4]; compound 0.1 µM) was 0.6% and the inhibition ([5]; compound 0.01 µM) was -6.3%. It also gave an inhibition ([5]; compound 0.1 µM) of -5.2%, an inhibition ([6]; compound 0.01 µM) of -4.1% and an inhibition ([6]; compound 0.1 µM) of 4.1%. The inhibition ([7]; compound 0.01 µM) was 0.2%, the inhibition ([7]; compound 0.1 µM) was 1.3% and the inhibition ([8]; compound 0.01 µM) was 5%. It also gave an inhibition ([8]; compound 0.1 µM) of -2.7%, an inhibition ([9]; compound 0.01 µM) of 6.8% and an inhibition ([9]; compound 0.1 µM) of -1.3%. It also gave an inhibition ([10]; compound 0.01 µM) of -1.8%, an inhibition ([10]; compound 0.1 µM) of -1% and an inhibition ([11]; compound 0.01 µM) of -3.3%. For the same compound, the inhibition ([11]; compound 0.1 µM) was -4.6%, the inhibition ([32]; compound 0.01 µM) was -1.9% and the inhibition ([32]; compound 0.1 µM) was 4.8%. It also gave an inhibition ([12]; compound 0.01 µM) of -1.2%, an inhibition ([12]; compound 0.1 µM) of -6.5% and an inhibition ([13]; compound 0.01 µM) of -3.8%. It also gave an inhibition ([13]; compound 0.1 µM) of -4.2%, an inhibition ([14]; compound 0.01 µM) of 8.7% and an inhibition ([14]; compound 0.1 µM) of -0.7%. It also gave an inhibition ([15]; compound 0.01 µM) of -2.8%, an inhibition ([15]; compound 0.1 µM) of -6% and an inhibition ([16]; compound 0.01 µM) of -4.8%. The inhibition ([16]; compound 0.1 µM) was -6.2%, the inhibition ([17]; compound 0.01 µM) was -4.6% and the inhibition ([17]; compound 0.1 µM) was 3.3%. It also gave an inhibition ([18]; compound 0.01 µM) of -3.6%, an inhibition ([18]; compound 0.1 µM) of -31.9% and an inhibition ([19]; compound 0.01 µM) of -4.7%. The inhibition ([19]; compound 0.1 µM) was 1.6%, the inhibition ([20]; compound 0.01 µM) was -1.4% and the inhibition ([20]; compound 0.1 µM) was -2.5%. The inhibition ([33]; compound 0.01 µM) was -7%, the inhibition ([33]; compound 0.1 µM) was -10% and the inhibition ([21]; compound 0.01 µM) was 3.2%. For the same compound, the inhibition ([21]; compound 0.1 µM) was 0.4%, the inhibition ([22]; compound 0.01 µM) was 19.6% and the inhibition ([22]; compound 0.1 µM) was -2.4%. For the same compound, the inhibition ([23]; compound 0.01 µM) was -6.5%, the inhibition ([23]; compound 0.1 µM) was 5.2% and the inhibition ([24]; compound 0.01 µM) was 9.9%. For the same compound, the inhibition ([24]; compound 0.1 µM) was -7.5%, the inhibition ([25]; compound 0.01 µM) was -1.6% and the inhibition ([25]; compound 0.1 µM) was -2.2%. The inhibition ([26]; compound 0.01 µM) was 2.6%, the inhibition ([26]; compound 0.1 µM) was -2% and the inhibition ([27]; compound 0.01 µM) was 4.1%. For the same compound, the inhibition ([27]; compound 0.1 µM) was 6.7%, the inhibition ([28]; compound 0.01 µM) was -0.3% and the inhibition ([28]; compound 0.1 µM) was -0.3%. For the same compound, the inhibition ([29]; compound 0.01 µM) was -38.6%, the inhibition ([29]; compound 0.1 µM) was -12.3% and the inhibition ([30]; compound 0.01 µM) was -1%. It also gave an inhibition ([30]; compound 0.1 µM) of 1.7%, an inhibition ([34]; compound 0.01 µM) of 4.8% and an inhibition ([34]; compound 0.1 µM) of 3.1%. The inhibition ([31]; compound 0.01 µM) was 9.3% and the inhibition ([31]; compound 0.1 µM) was -5.3%.

Source: the kinase profiling compilation of Christmann-Franck et al. (2016)
